Publication PMC4805204, “Robust Stimulation of W1282X-CFTR Channel Activity by a Combination of Allosteric Modulators” (PLoS ONE, 2016)

Biological target: T1, Δ1198-CFTR (Homo sapiens, UniProt P13569)
T1 construct: NBD2 deletion construct; V1198 replaced with a termination codon
Experiment: inside-out macropatch clamp of HEK-293T cells, […] curcumin, order of addition with VX-770
Assay type: cell-based

T1 sequence (P13569 1-1197, stated change not applied): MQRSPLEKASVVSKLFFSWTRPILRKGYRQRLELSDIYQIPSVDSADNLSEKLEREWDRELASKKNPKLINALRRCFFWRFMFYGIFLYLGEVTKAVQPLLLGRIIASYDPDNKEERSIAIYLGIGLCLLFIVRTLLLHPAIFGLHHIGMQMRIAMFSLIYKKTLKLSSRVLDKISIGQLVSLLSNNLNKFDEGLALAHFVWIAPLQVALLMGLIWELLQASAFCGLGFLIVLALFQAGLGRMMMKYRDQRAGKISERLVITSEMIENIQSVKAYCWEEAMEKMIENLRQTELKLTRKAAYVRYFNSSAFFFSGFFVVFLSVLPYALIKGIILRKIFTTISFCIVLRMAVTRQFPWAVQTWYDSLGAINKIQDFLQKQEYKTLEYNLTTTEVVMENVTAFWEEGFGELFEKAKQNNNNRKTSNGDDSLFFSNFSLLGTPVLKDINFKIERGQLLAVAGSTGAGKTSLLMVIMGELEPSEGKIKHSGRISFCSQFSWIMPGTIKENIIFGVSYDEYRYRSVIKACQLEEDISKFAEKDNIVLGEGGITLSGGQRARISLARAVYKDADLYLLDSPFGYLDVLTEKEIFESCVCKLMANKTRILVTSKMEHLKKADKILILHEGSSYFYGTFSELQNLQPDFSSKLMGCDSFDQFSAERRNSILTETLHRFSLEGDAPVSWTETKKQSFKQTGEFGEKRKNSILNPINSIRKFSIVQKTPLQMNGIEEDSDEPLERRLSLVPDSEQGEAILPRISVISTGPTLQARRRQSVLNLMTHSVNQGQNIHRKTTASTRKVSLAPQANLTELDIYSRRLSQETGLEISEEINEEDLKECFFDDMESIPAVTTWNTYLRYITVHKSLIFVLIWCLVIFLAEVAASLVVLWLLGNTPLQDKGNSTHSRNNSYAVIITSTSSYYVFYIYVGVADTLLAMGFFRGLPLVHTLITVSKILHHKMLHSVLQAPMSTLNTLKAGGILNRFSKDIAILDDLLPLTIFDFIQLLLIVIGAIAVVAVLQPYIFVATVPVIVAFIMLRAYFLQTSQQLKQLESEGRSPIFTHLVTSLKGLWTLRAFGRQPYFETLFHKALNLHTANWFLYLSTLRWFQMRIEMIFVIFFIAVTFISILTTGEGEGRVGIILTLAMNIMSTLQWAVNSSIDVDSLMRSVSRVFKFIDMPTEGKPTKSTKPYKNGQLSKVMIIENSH

COc1cc(/C=C/C(=O)CC(=O)/C=C/c2ccc(O)c(OC)c2)ccc1O [curcumin]
inside-out macropatch clamp of HEK-293T cells, 30 uM curcumin, order of addition: Mean percent stimulation of W1282X-CFTR or Δ1198-CFTR current by each compound alone
